Experiments:
Assay type in all cases: in vivo
common ragweed [1] = assay: Test Example 3: herbicidal effects in soil treatment; conditions: dose 3.2 g/a
How it was run: (§1)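 Seeds were sown in sterilized diluvial soil and covered with about 1.5 cm of soil. Compounds, formulated as emulsifiable concentrates and diluted with water, were sprayed evenly over the soil surface at set doses in g/a. Herbicidal effect was scored on a rating scale three weeks later.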

large crabgrass [2] = assay: as above; conditions: dose 3.2 g/a
How it was run: as §1

wild oat [3] = assay: as above; conditions: dose 3.2 g/a
How it was run: as §1

water foxtail [4] = assay: as above; conditions: dose 3.2 g/a
How it was run: as §1

beadstraw [5] = assay: as above; conditions: dose 3.2 g/a
How it was run: as §1

barnyardgrass [6] = assay: as above; conditions: dose 3.2 g/a
How it was run: as §1

giant foxtail [7] = assay: as above; conditions: dose 3.2 g/a
How it was run: as §1

posumbu knotweed [8] = assay: as above; conditions: dose 3.2 g/a
How it was run: as §1

common chickweed [9] = assay: as above; conditions: dose 3.2 g/a
How it was run: as §1

common lambsquater [10] = assay: as above; conditions: dose 3.2 g/a
How it was run: as §1

Italian ryegrass [11] = assay: as above; conditions: dose 3.2 g/a
How it was run: as §1

velvetleaf [12] = assay: as above; conditions: dose 3.2 g/a
How it was run: as §1

redroot pigweed [13] = assay: as above; conditions: dose 3.2 g/a
How it was run: as §1

ducksalad [14] = assay: Test Example 2: herbicidal effects during the vegetation period under submerged conditions; conditions: treatment during the vegetation period under submerged conditions; dose 2.52 g/a
How it was run: (§2)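 Barnyardgrass, bulrush and ducksalad were co-sown in alluvial soil flooded to 4 cm and grown in a greenhouse at 25 to 30° C. At the 1- or 2-leaf stage, water-diluted emulsifiable concentrates went onto the water surface at set doses (g/a). Herbicidal effect was scored three weeks later on a graded scale.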

barnyardgrass [15] = assay: as above; conditions: treatment during the vegetation period under submerged conditions; dose 2.52 g/a
How it was run: as §2

bulrush [16] = assay: as above; conditions: treatment during the vegetation period under submerged conditions; dose 2.52 g/a
How it was run: as §2

transplanted rice = assay: Test Example 1: preemergence treatment under submerged conditions, effect on crop; conditions: dose 2.52 g/a
How it was run: (§3)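 Alluvial soil flooded to 4 cm depth; barnyardgrass, bulrush and ducksalad sown and 2.5-leaf rice seedlings transplanted. Same day, water-diluted emulsifiable concentrates applied to the water surface at set doses (g/a). Kept at 25–30 °C in greenhouse; effects scored 0–5 by mortality after three weeks.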

ducksalad [17] = assay: Test Example 1: herbicidal effects in preemergence treatment under submerged conditions; conditions: dose 2.52 g/a
How it was run: as §3

barnyardgrass [18] = assay: as above; conditions: dose 2.52 g/a
How it was run: as §3

bulrush [19] = assay: as above; conditions: dose 2.52 g/a
How it was run: as §3

common ragweed [20] = assay: Test Example 4: herbicidal effect in foliage treatment; conditions: dose 3.2 g/a, three weeks after application
How it was run: (§4)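 A uniform foliar spray of emulsifiable concentrate, diluted with water to give the stated g/a dose, was applied to plants raised for 14 days from seed in sterilized diluvial soil at 25 to 30° C. Herbicidal effects were scored three weeks later.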

large crabgrass [21] = assay: as above; conditions: dose 3.2 g/a, three weeks after application
How it was run: as §4

wild oat [22] = assay: as above; conditions: dose 3.2 g/a, three weeks after application
How it was run: as §4

water foxtail [23] = assay: as above; conditions: dose 3.2 g/a, three weeks after application
How it was run: as §4

beadstraw [24] = assay: as above; conditions: dose 3.2 g/a, three weeks after application
How it was run: as §4

barnyardgrass [25] = assay: as above; conditions: dose 3.2 g/a, three weeks after application
How it was run: as §4

giant foxtail [26] = assay: as above; conditions: dose 3.2 g/a, three weeks after application
How it was run: as §4

common chickweed [27] = assay: as above; conditions: dose 3.2 g/a, three weeks after application
How it was run: as §4

common lambsquater [28] = assay: as above; conditions: dose 3.2 g/a, three weeks after application
How it was run: as §4

Italian ryegrass [29] = assay: as above; conditions: dose 3.2 g/a, three weeks after application
How it was run: as §4

velvetleaf [30] = assay: as above; conditions: dose 3.2 g/a, three weeks after application
How it was run: as §4

redroot pigweed [31] = assay: as above; conditions: dose 3.2 g/a, three weeks after application
How it was run: as §4

posumbu knotweed [32] = assay: as above; conditions: dose 3.2 g/a, three weeks after application
How it was run: as §4

Row | SMILES | J: common ragweed, herbicidal effect (evaluation scale 0-5) (common ragweed [1]) | D: large crabgrass, herbicidal effect (evaluation scale 0-5) (large crabgrass [2]) | F: wild oat, herbicidal effect (evaluation scale 0-5) (wild oat [3]) | G: water foxtail, herbicidal effect (evaluation scale 0-5) (water foxtail [4]) | O: beadstraw, herbicidal effect (evaluation scale 0-5) (beadstraw [5]) | A: barnyardgrass, herbicidal effect (evaluation scale 0-5) (barnyardgrass [6]) | E: giant foxtail, herbicidal effect (evaluation scale 0-5) (giant foxtail [7]) | M: posumbu knotweed, herbicidal effect (evaluation scale 0-5) (posumbu knotweed [8]) | L: common lambsquater, herbicidal effect (evaluation scale 0-5) (common lambsquater [10]) | H: Italian ryegrass, herbicidal effect (evaluation scale 0-5) (Italian ryegrass [11]) | I: velvetleaf, herbicidal effect (evaluation scale 0-5) (velvetleaf [12]) | K: redroot pigweed, herbicidal effect (evaluation scale 0-5) (redroot pigweed [13]) | C: ducksalad, herbicidal effect (evaluation scale 0-5) (ducksalad [14]) | A: barnyardgrass, herbicidal effect (evaluation scale 0-5) (barnyardgrass [15]) | B: bulrush, herbicidal effect (evaluation scale 0-5) (bulrush [16]) | a: transplanted rice, effect on crop (evaluation scale 0-5) (transplanted rice) | C: ducksalad, herbicidal effect (evaluation scale 0-5) (ducksalad [17]) | A: barnyardgrass, herbicidal effect (evaluation scale 0-5) (barnyardgrass [18]) | B: bulrush, herbicidal effect (evaluation scale 0-5) (bulrush [19]) | J: common ragweed, herbicidal effect (common ragweed [20]) | other results
1 | O=C1CC(C(F)(F)F)OCN1Cc1ccccc1NS(=O)(=O)C(F)(F)F (stereo not shown) [II-14] | 4 (mortality of at least 70% and less than 90%) | 5 (mortality of 90% or above (nearly complete death)) | 0 (mortality of less than 5% (almost ineffective)) | 5 (mortality of 90% or above (nearly complete death)) | 5 (mortality of 90% or above (nearly complete death)) | 5 (mortality of 90% or above (nearly complete death)) | 4 (mortality of at least 70% and less than 90%) | 5 (mortality of 90% or above (nearly complete death)) | 4 (mortality of at least 70% and less than 90%) | 3 (mortality of at least 40% and less than 70%) | 5 (mortality of 90% or above (nearly complete death)) | 4 (mortality of at least 70% and less than 90%) | 5 (mortality of 90% or above (nearly complete death)) | 5 (mortality of 90% or above (nearly complete death)) | 5 (mortality of 90% or above (nearly complete death)) | 0 (mortality of less than 5% (almost ineffective)) | 5 (mortality of 90% or above (nearly complete death)) | 5 (mortality of 90% or above (nearly complete death)) | 5 (mortality of 90% or above (nearly complete death)) | 3 (mortality of at least 40% and less than 70%) | N: common chickweed, herbicidal effect (evaluation scale 0-5) (common chickweed [9]): 5 (mortality of 90% or above (nearly complete death)); D: large crabgrass, herbicidal effect (large crabgrass [21]): 4 (mortality of at least 70% and less than 90%); F: wild oat, herbicidal effect (wild oat [22]): 0 (mortality of less than 5% (almost ineffective)); G: water foxtail, herbicidal effect (water foxtail [23]): 5 (mortality of 90% or above (nearly complete death)); O: beadstraw, herbicidal effect (beadstraw [24]): 3 (mortality of at least 40% and less than 70%); A: barnyardgrass, herbicidal effect (barnyardgrass [25]): 5 (mortality of 90% or above (nearly complete death)); E: giant foxtail, herbicidal effect (giant foxtail [26]): 4 (mortality of at least 70% and less than 90%); N: common chickweed, herbicidal effect (common chickweed [27]): 3 (mortality of at least 40% and less than 70%); L: common lambsquater, herbicidal effect (common lambsquater [28]): 4 (mortality of at least 70% and less than 90%); H: Italian ryegrass, herbicidal effect (Italian ryegrass [29]): 3 (mortality of at least 40% and less than 70%); I: velvetleaf, herbicidal effect (velvetleaf [30]): 4 (mortality of at least 70% and less than 90%); K: redroot pigweed, herbicidal effect (redroot pigweed [31]): 0 (mortality of less than 5% (almost ineffective))
2 | CC(C)COC(=O)N(c1ccccc1CN1COC(C(F)(F)F)CC1=O)S(=O)(=O)C(F)(F)F (stereo not shown) [II-16] | 3 (mortality of at least 40% and less than 70%) | 0 (mortality of less than 5% (almost ineffective)) | 0 (mortality of less than 5% (almost ineffective)) | 5 (mortality of 90% or above (nearly complete death)) | 0 (mortality of less than 5% (almost ineffective)) | 0 (mortality of less than 5% (almost ineffective)) | 0 (mortality of less than 5% (almost ineffective)) | 0 (mortality of less than 5% (almost ineffective)) | 1 (mortality of at least 5% and less than 20%) | 0 (mortality of less than 5% (almost ineffective)) | 0 (mortality of less than 5% (almost ineffective)) | 0 (mortality of less than 5% (almost ineffective)) | 4 (mortality of at least 70% and less than 90%) | 1 (mortality of at least 5% and less than 20%) | 5 (mortality of 90% or above (nearly complete death)) | 0 (mortality of less than 5% (almost ineffective)) | 5 (mortality of 90% or above (nearly complete death)) | 5 (mortality of 90% or above (nearly complete death)) | 5 (mortality of 90% or above (nearly complete death)) | 2 (mortality of at least 20% and less than 40%) | D: large crabgrass, herbicidal effect (large crabgrass [21]): 0 (mortality of less than 5% (almost ineffective)); F: wild oat, herbicidal effect (wild oat [22]): 0 (mortality of less than 5% (almost ineffective)); G: water foxtail, herbicidal effect (water foxtail [23]): 5 (mortality of 90% or above (nearly complete death)); O: beadstraw, herbicidal effect (beadstraw [24]): 0 (mortality of less than 5% (almost ineffective)); A: barnyardgrass, herbicidal effect (barnyardgrass [25]): 0 (mortality of less than 5% (almost ineffective)); E: giant foxtail, herbicidal effect (giant foxtail [26]): 0 (mortality of less than 5% (almost ineffective)); M: posumbu knotweed, herbicidal effect (posumbu knotweed [32]): 0 (mortality of less than 5% (almost ineffective)); N: common chickweed, herbicidal effect (common chickweed [27]): 2 (mortality of at least 20% and less than 40%); L: common lambsquater, herbicidal effect (common lambsquater [28]): 3 (mortality of at least 40% and less than 70%); H: Italian ryegrass, herbicidal effect (Italian ryegrass [29]): 0 (mortality of less than 5% (almost ineffective)); I: velvetleaf, herbicidal effect (velvetleaf [30]): 0 (mortality of less than 5% (almost ineffective)); K: redroot pigweed, herbicidal effect (redroot pigweed [31]): 0 (mortality of less than 5% (almost ineffective))

Reference: patent publication US20120029187A1, “HALOALKYLSULFONANILIDE DERIVATIVE” (Nissan Chemical Industries, Ltd., priority 2009, published 2012)
